Eight molecules from patent US6071709A, “Nerve growth factor/receptor complex” (The United States of America as represented by the …, priority 1992, dated 2000) can be followed below.

One experiment has as its target T1, gp140^prototrk (Rattus norvegicus, UniProt P35739).
T1 construct: tyrosine phosphorylation in response to NGF addition to PC12 cells; endogenous in cells; host or cells: PC12 cells
Description: trk tyrosine phosphorylation in PC12 cells treated with NGF (32P labelling / Ptyr immunoblot of trk immunoprecipitates). The settings on record: 15 min at 37° C., 100 ng/ml FGF or EGF, 100 nM insulin, 1 μg/ml PMA. It is filed as cell-based. The method, then:
FIGS. 1A-C show the tyrosine phosphorylation of gp140trk in PC12 cells and trk-expressing NIH-3T3 cells treated with NGF. FIG. 1A, gp140trk immunoprecipitated from PC12 cells or trk-expressing 3T3 cells labeled with ^32 P-orthophosphate. Immunoprecipitates were prepared with rabbit anti-trk antisera 43-4 (D. Martin-Zanca et al., Mol Cell. Biol. 9:24-33 (1989)) from lysates prepared from 3T3 cells expressing the rat trk gene (trk 3T3) (lane 1) or PC12 cells treated for 5 min with 100 ng/ml NGF at 37° C. (lanes 2 and 4) or mock treated (lane 3). The immunoprecipitate shown in lane 2 was prepared in the presence of the peptide used to generate the rabbit 43-4 trk antibody (Martin-Zanca et al., (1989)). Shown in FIG. 1B is the phosphoamino acid analysis of trk proteins phosphorylated in vitro in p140trk immunoprecipitates from NGF treated PC12 cells in vivo from NGF treated (+) or untreated (-) PC12 cells, or in vivo from trk 3T3 cells. The positions of phosphoserine (S), phosphothreonine (T), and phosphotyrosine (Y) are indicated. FIG. 1C, trk proteins from trk 3T3 cells phosphorylated […]. In lanes 1-3, gp140trk immunoprecipitates were probed with P-tyr antibodies. In lanes 4-6, gp140trk proteins were phosphorylated in vitro in kinase assays. Cells were treated with suramin (lanes 2 and 5) or with 500 ng/ml NGF for 10 min following suramin treatment. The band migrating at 110 kDa is a glycosylation precursor of gp140^prototrk (Martin-Zanca et al., (1989)). The band at the bottom of the figure is IgG. Molecular weight markers in kDa are indicated.
rtrk 3T3 cells were generated by CaPO4 mediated transfection of a rat trk cDNA into NIH-3T3 cells. Rat trk cDNAs were obtained from an embryonic rat DRG cDNA library. The longest trk cDNA obtained (2.4 kbp) was missing approximately 150 bp of the coding region as compared to available mouse and human trk sequence. The missing bases plus minimal (~50 bp) 5' flanking non-coding sequences were replaced from mouse first coding exon sequences and the reconstructed gene was placed downstream of an MSV-LTR. PC12 cells or rtrk 3T3 cells (2×10^7) were labeled with ^32 P orthophosphate (1 mCi.ml in 4 ml) for 4 hr at 37° C. Cells were treated with NGF for the indicated times, washed, lysed in buffer containing 1% NP40, and the lysates immunoprecipitated with trk antibody 43-4 (D. R. Kaplan et al., Cell 61:125-133 (1990)) and electrophoresed on 7.5% SDS-PAGE gels as previously described (Kaplan et al., (1990)). For b, the phosphorylated trk bands were eluted from the gel and phosphoamino acid analysis performed as described (B. M. Sefton et al., J. Cell 24:165-174 (1981)). gp140trk protein from NGF treated PC12 cells was phosphorylated in vitro. For c, rtrk 3T3 cells were treated with 1 mM suramin in Dulbecco's Modified Eagle Medium (DMEM) for 2 h or mock treated. Following extensive washing of the cells with DMEM, NGF was added for the time indicated. Cells were lysed and the lysates were immunoprecipitated with trk antibody. Immunoprecipitates were either subjected to immunoblot analysis with the phosphotyrosine (Ptyr) monoclonal antibody 4G10 (Lanes 1-3), or were analyzed in kinase assays. (D. K. Morrison, et al. Cell 58:649-657 (1989) and Kaplan et al., (1990)). Similar amounts of trk protein were present in each lane.
FIGS. 2A-C. Time course, growth factor specificity, and dose response of trk tyrosine phosphorylation in PC12 cells. A, Time course of trk tyrosine phosphorylation. Cells (2×10^7) were treated with 50 ng/ml NGF at 37° C. B, Effects of growth and differentiation factors on trk tyrosine phosphorylation. Cells were treated with 100 ng/ml NGF, 100 ng/ml basic fibroblast growth factor (FGF) (Boehringer Mannheim Biochemicals), 100 ng/ml epidermal growth factor (EGF) (Upstate Biotechnology, Inc.), 100 nM insulin (Sigma), or 1 μg/ml phorbal 12-myristate […] (PMA) (Sigma) for 15 min. at 37° C. C, dose response of trk tyrosine phosphorylation. […]

A further experiment addresses p140^prototrk (Rattus norvegicus, UniProt P35739). The experiment can be described thus: trk tyrosine phosphorylation in rtrk-3T3 cells, suramin treatment followed by NGF (in vivo and immune complex kinase assays). The experiment is classed as cell-based. The settings on record: rtrk-3T3 cells, 1 mM suramin for 2 h.
Another experiment relates to gp145^trkB. The experiment can be described thus: gp145^trkB tyrosine phosphorylation in trkB-expressing NIH 3T3 cells (pJM8 lines), immunoprecipitation and α-Ptyr Western. The experiment is classed as cell-based, rat. The settings on record: for time to detection of trkB tyrosine phosphorylation / time to maximal levels of trkB tyrosine phosphorylation / concentration giving maximal gp145^trkB phosphorylation: pJM8-3 cells; for time to detection of trkB tyrosine phosphorylation / time to maximal levels of trkB tyrosine phosphorylation: 100 ng/ml; for concentration giving maximal gp145^trkB phosphorylation: dose response 0.1 to 250 ng/ml; for tyrosine phosphorylation of gp145^trkB: pJM8 trkB-expressing NIH 3T3 cells, 100 ng/ml factor, 5 min. The method, then:
A 4.8 kb cDNA encompassing the coding domain of rat trkB (Middlemas et al., (1991)) was cloned into the pMEX plasmid (pJM8) downstream of the MSV promoter. NIH 3T3 cells were cotransfected with the pJM8 plasmid and a plasmid containing the neomycin phosphotransferase gene (L. F. Parada et al., Nature 312:649-651 (1984)), and G418-resistant colonies were selected. PC12 cells (Greene and Tischler, 1976) were grown in DMEM with 10% horse serum and 5% fetal calf serum. NIH 3T3 cells and the derivative cells lines were maintained in DMEM medium containing 10% calf serum. All cells were maintained in a humidified incubator at 37° C. in 5% CO2.
Approximately 10^7 cells were treated at 37° C. for 5 min with 100 ng/ml growth factors or at the concentrations and lengths of time noted in the text. NP-40 plate lysis and gp145^trkB immunoprecipitation with anti-serum 443 were performed as previously described (Kaplan et al., (1990), (1991)). The phosphotyrosine content was analyzed by Western transfer using monoclonal antibody 4G10 as previously described (Morrison et al., (1989)).
The product of the trk proto-oncogene (gp140^proto-trk) is tyrosine phosphorylated in response to NGF in PC12 cells, NGF-responsive neuroblastoma cells, heterologous fibroblasts and Xenopus oocytes (Kaplan et al., (1991); A. R. Nebreda et al., Science 252:558-560 (1991); Klein et al., (1991)). Next it was examined whether NGF elicited tyrosine phosphorylation of gp145^trkB in trkB-expressing NIH 3T3 cells. Cell line pJM8-3 was treated with high concentrations of NGF (100 ng/ml) for 5 minutes. The cells were lysed, immunoprecipitated with anti-trkB antiserum 443, transferred to nitrocellulose filters and probed with anti-phosphotyrosine (α-Ptyr) antibodies. As a negative control, untransfected NIH-3T3 cells were treated in parallel, while PC12 cells were used as a positive control for NGF responsiveness (Kaplan et al., (1991)).
BDNF and NT-3 are neurotrophic factors that display many functional and structural features that are reminiscent of NGF. The genes encoding BDNF and NT-3 have recently been cloned and used to express high levels of the biologically active factors in pure form (A. Rosenthal et al., Neuron 4:773 (1990)). It was tested whether these NGF-related neurotrophic factors would stimulate phosphorylation of the trkB glycoprotein by exposing the pJM-8 cell lines to 100 ng/ml of NGF, BDNF, or NT-3 (~4 nM) for 5 minutes. The cells were then lysed and the lysates incubated with a trkB anti-peptide antiserum (443) with or without excess peptide. After transfer to nitrocellulose filters, the trkB proteins were probed with an anti-phosphotyrosine (α-ptyr) monoclonal antibody (FIG. 10) (Kaplan et al. (1991)). […] Thus, both neurotrophic factors NT-3 and BDNF can elicit tyrosine phosphorylation of gp145^trkB in a manner similar to that observed for NGF stimulation of the trk receptor. Similar results have been obtained with NT-3 and BDNF in Rat2 cells expressing trkB.
Having detected gp145^trkB phosphorylation in response to BDNF and NT-3, it was next determined whether unrelated polypeptide growth factors were capable of eliciting a similar response. Platelet-derived growth factor (PDGF; 100 ng/ml), epidermal growth factor (EGF; 100 ng/ml), insulin (100 ng/ml), and basic fibroblast growth factor (bFGF; 100 ng/ml), were added independently to exponentially growing cultures of pJM8-3 cells.
The previous studies were done in the presence of high concentrations of neurotrophic factors. Dose response experiments were next performed to determine the range of concentrations at which phosphorylation of the trkB receptor was stimulated by NT-3 or BDNF. Cells were incubated with quantities of NT-3 or BDNF ranging from 0.1 ng/ml to 250 ng/ml and treated as described in FIG. 12. […]

A further experiment relates to trkB. The experiment can be described thus: Growth factor stimulation of trkB transfected 3T3 cells (pJM8-3), COS cell supernatants, Ptyr blot. The experiment is classed as cell-based. The settings on record: trkB-expressing 3T3 cells (pJM8-3), 100 μl/ml NT-3 COS cell supernatant, 10 minutes at 37° C. On the procedure:
To study the expression of trkB in transfected cell lines, full length trkB cDNAs were cloned into CMV and MuLV LTR expression vectors and transfected into NIH-3T3 fibroblasts, PC 12 pheochromocytoma cells and NR18 cells (a derivative of PC12 cells). Stable G418 resident clones were picked and expanded. Assays to detect cell lines expressing trkB were performed by detergent lysis of the cells, followed by WGA-sepharose adsorption. The adsorbed material was analyzed by SDS-PAGE on 7.5% gels, transferred to nitrocellulose and probed with antisera 442, a trkB specific rabbit antisera. The Western blots contained a WGA-sepharose extract of mouse brain as a control and BIORAD prestained molecular weight standards (200, 116, 80 and 43 kDa).
To study growth factor stimulation in cells transfected with trkB, NIH 3T3 trk transfected 3T3 (pJM7-23), trkB transfected 3T3 cells (pJM8-3) and non-transfected 3T3 cells (control cells) were exposed to media or media containing 100 μl/ml of NGF-COS cell supernatant, 100 μl/ml NT-3 COS cell supernatant, 5 μl/ml human platelet extract, or 50 μl/ml human platelet extract, for 10 minutes at 37° C. The plates were rinsed, lysed, and the trk or trkB was immunoprecipitated with rabbit antisera 443 and protein A Sepharose in the presence or absence of 10 μg/ml blocking peptide. […]

T1 sequence (P35739 33-799): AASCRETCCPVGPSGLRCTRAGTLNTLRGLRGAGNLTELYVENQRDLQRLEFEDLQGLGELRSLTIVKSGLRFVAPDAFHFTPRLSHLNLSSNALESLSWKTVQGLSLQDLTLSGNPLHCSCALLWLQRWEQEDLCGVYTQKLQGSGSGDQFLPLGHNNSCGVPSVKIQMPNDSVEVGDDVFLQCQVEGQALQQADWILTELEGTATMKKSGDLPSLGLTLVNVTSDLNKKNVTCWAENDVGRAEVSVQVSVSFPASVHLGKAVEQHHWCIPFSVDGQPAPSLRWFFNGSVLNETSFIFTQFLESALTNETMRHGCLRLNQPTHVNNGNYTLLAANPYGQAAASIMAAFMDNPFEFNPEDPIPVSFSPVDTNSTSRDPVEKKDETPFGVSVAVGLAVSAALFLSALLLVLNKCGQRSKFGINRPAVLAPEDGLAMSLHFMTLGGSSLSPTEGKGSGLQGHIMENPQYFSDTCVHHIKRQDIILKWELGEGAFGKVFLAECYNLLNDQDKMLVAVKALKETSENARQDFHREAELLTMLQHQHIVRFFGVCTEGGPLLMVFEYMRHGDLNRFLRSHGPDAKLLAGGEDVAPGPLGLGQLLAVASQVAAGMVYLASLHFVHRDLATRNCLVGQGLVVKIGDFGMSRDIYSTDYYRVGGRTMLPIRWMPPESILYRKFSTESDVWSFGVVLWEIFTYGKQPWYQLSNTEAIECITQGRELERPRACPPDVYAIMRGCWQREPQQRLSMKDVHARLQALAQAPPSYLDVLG
Sequence of p140^prototrk (P35739 33-799): as above

For the molecule `CCCCCCCCCCCCCC(=O)O[C@@H]1[C@@H](C)[C@@]2(O)[C@@H](C=C(CO)C[C@]3(O)C(=O)C(C)=C[C@@H]23)[C@@H]2C(C)(C)[C@]12OC(C)=O` [PMA, phorbal 12-myristate 12-acetate, reference compound], the “induction of trk tyrosine phosphorylation by growth and differentiation factors” value at gp140^prototrk was “failed to induce”.
For the molecule `Cc1ccc(C(=O)Nc2ccc(S(=O)(=O)O)c3cc(S(=O)(=O)O)cc(S(=O)(=O)O)c23)cc1NC(=O)c1cccc(NC(=O)Nc2cccc(C(=O)Nc3cc(C(=O)Nc4ccc(S(=O)(=O)O)c5cc(S(=O)(=O)O)cc(S(=O)(=O)O)c45)ccc3C)c2)c1` [suramin, reference compound], the “tyrosine phosphorylation of p140^prototrk in vivo and in immune complex kinase assays” value at p140^prototrk is given as “markedly reduced”.
As to “BDNF: NGF related neurotrophic factor, brain-derived neurotrophic factor”, in the experiment with gp145^trkB, the “time to detection of trkB tyrosine phosphorylation” value was “one”, the “time to maximal levels of trkB tyrosine phosphorylation” value was no more than 5 min, the “concentration giving maximal gp145^trkB phosphorylation” value was found to be 50 ng/mL and the “tyrosine phosphorylation of gp145^trkB” value is on record as “strong phosphorylation”.
For “EGF: epidermal growth factor (Upstate Biotechnology, Inc.) [reference compound]”, the “tyrosine phosphorylation of gp145^trkB” value with gp145^trkB was “No tyrosine-phosphorylated gp145^trkB was detected”. The “induction of trk tyrosine phosphorylation by growth and differentiation factors” value with gp140^prototrk is recorded as “failed to induce”.
With PDGF [reference compound], in the experiment on gp145^trkB, the “tyrosine phosphorylation of gp145^trkB” value is listed as “No tyrosine-phosphorylated gp145^trkB was detected”.
Consider “basic FGF: basic fibroblast growth factor (Boehringer Mannheim Biochemicals) [reference compound]”, for which the “tyrosine phosphorylation of gp145^trkB” value with gp145^trkB is listed as “No tyrosine-phosphorylated gp145^trkB was detected”. The “induction of trk tyrosine phosphorylation by growth and differentiation factors” value with gp140^prototrk was “failed to induce”.
With “insulin: insulin (Sigma) [reference compound]”, in the experiment on gp145^trkB, the “tyrosine phosphorylation of gp145^trkB” value is reported as “No tyrosine-phosphorylated gp145^trkB was detected”. Further, the “induction of trk tyrosine phosphorylation by growth and differentiation factors” value in the experiment with gp140^prototrk is recorded as “failed to induce”.

B1: NT-3: NGF related neurotrophic factor neurotrophin-3; HPLC-purified from Genentech or as COS cell supernatant (protein, UniProt P20783 139-257, looked up)
Neurotrophin-3: YAEHKSHRGEYSVCDSESLWVTDKSSAIDIRGHQVTVLGEIKTGNSPVKQYFYETRCKEARPVKNGCRGIDDKHWNSQCKTSQTYVRALTSENNKLVGWRWIRIDTSCVCALSRKIGRT
In the case of B1, in the experiment on gp145^trkB, the “time to detection of trkB tyrosine phosphorylation” value is “one”, the “time to maximal levels of trkB tyrosine phosphorylation” value was no more than 5 min, the “concentration giving maximal gp145^trkB phosphorylation” value was 50 ng/mL and the “tyrosine phosphorylation of gp145^trkB” value is recorded as “strong phosphorylation”. Further, the “stimulation of trkB tyrosine phosphorylation” value in the experiment on trkB was “stimulated”.
